Tests used:
[1] = Prodrug conversion in Beagle dog assessed as Cmax of 4'-Fluorouridine metabolite at 1 mg/kg, po by LC-MS/MS analysis; format: ADME, organism-based, Canis lupus familiaris; conditions: in vivo
[2] = Prodrug conversion in Sprague-Dawley rat assessed as AUC (0 to t) of 4'-Fluorouridine metabolite at 6 mg/kg/day, po treated for 7 days by LC-MS/MS analysis; format: ADME, organism-based; conditions: in vivo, 168 h, time 7 day
[3] = system: Mammarenavirus choriomeningitidis; assay: Antiviral activity against LCMV infected in C57BL/6-Prf1tm1Sdz/J mouse assessed as reduction in viral titer in lung treated orally once daily for 7 days by RT-qPCR analysis; format: functional, organism-based; conditions: dose 1-5 mg/kg, route po, time 7.0 day
[4] = Prodrug conversion in Sprague-Dawley rat assessed as 4'-Fluorouridine metabolite formation in brain at 6 mg/kg, po measured for 0.5 to 24 hrs by LC-MS/MS analysis; format: ADME, organism-based; conditions: in vivo, time 0.5-24 hrs
[5] = Prodrug conversion in Sprague-Dawley rat assessed as AUC (0 to t) of 4'-Fluorouridine metabolite at 20 mg/kg, po by LC-MS/MS analysis; format: ADME, organism-based; conditions: in vivo
[6] = Prodrug conversion in C57BL/6J mouse assessed as Cmax of 4'-Fluorouridine metabolite at 6 mg/kg, po by LC-MS/MS analysis; format: ADME, organism-based; conditions: in vivo
[7] = system: Mammarenavirus choriomeningitidis; assay: Antiviral activity against LCMV infected in C57BL/6-Prf1tm1Sdz/J mouse assessed as reduction in viral titer in spleen treated orally once daily for 7 days by RT-qPCR analysis; format: functional, organism-based; conditions: dose 1-5 mg/kg, route po, time 7.0 day
[8] = Stability in Sprague-Dawley rat plasma administered orally or intravenously; format: ADME, cell-free; conditions: po
[9] = target: Voltage-gated inwardly rectifying potassium channel KCNH2 (Homo sapiens, UniProt Q12809); assay: Inhibition of hERG; format: toxicity
[10] = Prodrug conversion in Beagle dog assessed as volume of distribution at steady state of 4'-Fluorouridine metabolite treated orally or intravenously by LC-MS/MS analysis; format: ADME, Canis lupus familiaris; conditions: in vivo, po
[11] = Prodrug conversion in Sprague-Dawley rat plasma assessed as parent nucleoside metabolite formation at 1 uM measured up to 60 mins by LC-MS/MS analysis; format: ADME, cell-free; conditions: 1 h
[12] = Stability of compound at pH 6.8 assessed as change in purity at 1 mg/ml incubated for 24 hrs by HPLC analysis; format: physicochemical; conditions: buffer, pH 6.8, 24 h
[13] = Stability of compound at pH 1.5 assessed as change in purity at 1 mg/ml incubated for 24 hrs by HPLC analysis; format: physicochemical; conditions: buffer, pH 1.5, 24 h
[14] = Prodrug conversion in Sprague-Dawley rat assessed as 4'-Fluorouridine metabolite formation in kidney at 6 mg/kg, po measured for 0.5 to 24 hrs by LC-MS/MS analysis; format: ADME, organism-based; conditions: in vivo, time 0.5-24 hrs
HepG2 = assay: Mitochondrial toxicity in human HepG2 cells cultured in galactose containing medium at 100 uM; format: cell-based; conditions: hepg2, 100 µM
[15] = Stability of compound at pH 1.5 assessed as change in purity at 1 mg/ml incubated for 12 hrs by HPLC analysis; format: physicochemical; conditions: buffer, pH 1.5, 12 h
[16] = Stability in SGF assessed as compound degradation measured for 24 hrs by HPLC analysis; format: physicochemical; conditions: simulated gastric fluid (SGF), read-out: Drug degradation
[17] = Prodrug conversion in Sprague-Dawley rat assessed as 4'-Fluorouridine metabolite formation in stomach at 6 mg/kg, po measured for 0.5 to 24 hrs by LC-MS/MS analysis; format: ADME, organism-based; conditions: in vivo, time 0.5-24 hrs
[18] = Prodrug conversion in Beagle dog assessed as AUC (0 to t) of 4'-Fluorouridine metabolite at 1 mg/kg, iv by LC-MS/MS analysis; format: ADME, organism-based, Canis lupus familiaris; conditions: in vivo
[19] = Stability of compound at pH 4.0 assessed as change in purity at 1 mg/ml incubated for 24 hrs by HPLC analysis; format: physicochemical; conditions: buffer, pH 4, 24 h
[20] = Stability in SIF assessed as compound degradation measured for 24 hrs by HPLC analysis; format: physicochemical; conditions: simulated intestinal fluid (SIF), read-out: Drug degradation
[21] = Prodrug conversion in C57BL/6J mouse assessed as Cmax of 4'-Fluorouridine metabolite at 2 mg/kg, po by LC-MS/MS analysis; format: ADME, organism-based; conditions: in vivo

Sequence of Voltage-gated inwardly rectifying potassium channel KCNH2 (Q12809 whole entry): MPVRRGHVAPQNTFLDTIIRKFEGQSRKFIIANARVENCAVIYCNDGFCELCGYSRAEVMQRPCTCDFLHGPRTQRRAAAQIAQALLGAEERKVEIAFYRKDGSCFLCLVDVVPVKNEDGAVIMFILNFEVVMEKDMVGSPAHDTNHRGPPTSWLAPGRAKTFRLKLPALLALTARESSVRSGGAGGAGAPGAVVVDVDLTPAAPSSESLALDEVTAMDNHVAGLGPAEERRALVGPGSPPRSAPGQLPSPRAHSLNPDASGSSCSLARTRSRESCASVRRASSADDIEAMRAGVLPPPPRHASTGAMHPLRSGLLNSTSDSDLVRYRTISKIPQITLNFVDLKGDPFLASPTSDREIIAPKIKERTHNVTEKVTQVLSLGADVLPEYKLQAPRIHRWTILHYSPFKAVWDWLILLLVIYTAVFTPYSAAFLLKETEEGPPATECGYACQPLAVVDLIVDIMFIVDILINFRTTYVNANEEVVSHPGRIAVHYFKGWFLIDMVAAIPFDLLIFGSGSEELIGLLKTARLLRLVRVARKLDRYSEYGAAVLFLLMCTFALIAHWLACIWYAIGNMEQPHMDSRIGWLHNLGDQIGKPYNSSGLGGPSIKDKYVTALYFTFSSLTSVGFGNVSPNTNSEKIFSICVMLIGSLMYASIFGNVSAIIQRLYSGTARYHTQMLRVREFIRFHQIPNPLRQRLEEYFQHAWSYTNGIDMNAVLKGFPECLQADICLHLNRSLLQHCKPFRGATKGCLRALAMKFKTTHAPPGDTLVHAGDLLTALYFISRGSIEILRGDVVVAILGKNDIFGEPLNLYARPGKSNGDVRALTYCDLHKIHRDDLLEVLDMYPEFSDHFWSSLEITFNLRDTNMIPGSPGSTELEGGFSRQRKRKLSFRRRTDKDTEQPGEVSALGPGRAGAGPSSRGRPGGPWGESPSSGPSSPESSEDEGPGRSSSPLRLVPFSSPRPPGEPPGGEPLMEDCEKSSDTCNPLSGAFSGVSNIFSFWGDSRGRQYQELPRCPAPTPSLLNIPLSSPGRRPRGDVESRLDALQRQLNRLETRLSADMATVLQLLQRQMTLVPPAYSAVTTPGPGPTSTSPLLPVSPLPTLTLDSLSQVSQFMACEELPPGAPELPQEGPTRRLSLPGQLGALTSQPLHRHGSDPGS

CC(C)C(=O)OC[C@@]1(F)O[C@@H](n2ccc(=O)n(COC(=O)c3cccnc3)c2=O)[C@H](OC(=O)C(C)C)[C@@H]1OC(=O)C(C)C
Cmax [1]: 139 ng/mL | AUCt [2]: 4084 ng·h/mL | Activity [3]: Dose-dependent-effect | Drug metabolism [4]: metabolite_detected | AUCt [5]: 11325 ng·h/mL | Cmax [6]: 266 ng/mL | Activity [7]: Dose-dependent-effect | Stability [8]: Unstable | inhibition (INH) [9]: Not_active | Vdss [10]: 3.07 L/kg | Drug metabolism [11]: metabolite_detected | Activity [12]: -0.6% | Activity [13]: -9.2% | Drug metabolism [14]: metabolite_detected | Activity (HepG2): Non-toxic | Activity [15]: -4.2% | degraded at 24 h [16]: < 5% | Drug metabolism [17]: metabolite_detected | AUCt [18]: 282 ng·h/mL | Activity [19]: -0.1% | degraded at 24 h [20]: < 5% | Cmax [21]: 57 ng/mL

From ChEMBL document CHEMBL6177980 (J Med Chem, 2025)
